SMILES strings stand for the structures.

One assay concerns HCV replicon (HCV1b sub-genomic, Huh-7 cells). Kind of assay: HCV replicon RNA replication assay (luciferase reporter). The class given is cell-based, Hepatitis C virus (CON-1 genotype b). The following applies: Hepatitis C virus, Huh-7. As to the method:
All curve fitting was conducted using non-linear regression analyses from PRISM (version 4.0c, GraphPad Inc.) and the determination of Rmax and EC50 or IC50 parameters were obtained from sigmoidal dose-response phase (variable slope) equation.
The replicon HCV1b is generated based on the wild-type sequence CON-1 genotype b (GenBank accession number AJ238799; Lohmann et al., Science 1999, 285: 110-113) and expressed the sub-genomic fragment HCV NS3-NS4A-NS4B-NS5A-NS5B. The replicon contain a hybrid HCV-IRES 5′UTR, a modified luciferase reporter gene expressed as a luciferase-Ubi-neomycin phosphotransferase gene fusion and an EMCV IRES NS3-NS5B subgenomic fragment with its 3′UTR. To generate cell lines harboring the replicon, Huh-7 cells are electroporated with purified in vitro HCV1b RNA transcripts and stable cell lines are selected in the presence of G418. Stable replicon cell lines are established as described in Science 1999, 285: 110-113. The amount of luciferase expressed by selected cells directly correlates with the level of HCV RNA replication, as measured by real-time PCR.
Stable HCV replicon cells are maintained in Dulbecco's Modified Eagle Medium (DMEM) supplemented with 10% FBS and 0.5 mg/ml G418. During the assay, DMEM supplemented with 10% FBS, containing 0.5% DMSO and lacking G418 are used as assay medium. For the assay, cell stocks are trypsinized and diluted in assay medium to distribute 7,500 cells in 96-well plates. The plates are then incubated at 37° until compound addition. Serial dilutions of the test compound are prepared in 100% DMSO, before dilution in assay medium to a final DMSO concentration of 0.5% to generate a concentration dose response curves. A fixed volume from each well of the compound dilution plate is transferred to a corresponding well of the cell culture plate. The cell culture plate is incubated at 37° C. with 5% CO2 for 72 hours. Following the 72 h incubation period, the medium is aspirated from the 96-well assay plate and a volume of 50_l of lysis buffer 100 mM Tris acetate, 20 mM Mg acetate, 2 mM EGTA, 3.6 mM ATP, 1% Brij 58, 0.7%_-mercaptoethanol containing 45_g/ml luciferine (pH 7.9) is added to each well. The luciferase activity is determined using the luciferase substrate and the luminescence is detected on a MicroBeta JET 1450 LSC & Luminescence Counter (Perkin Elmer) instrument. The luminescence in each well of the culture plate is a measure of the amount of HCV RNA replication in the presence of various concentrations of inhibitor. The % inhibition is calculated for each inhibitor concentration and used to determine the concentration that results in 50% inhibition of HCV replication (EC50).
What is called EC50 is the midpoint of the concentration-response curve. On to `Cc1noc(-c2ccc(Cl)cc2)c1C(=O)O/N=C(\N)c1ccc(Cl)cc1` [Compound 60, reference compound], for which the half-maximal effective concentration (EC50) was 500 to 1000 nM.

`Cc1noc(C)c1C(=O)O/N=C(\N)c1cccc(C(F)(F)F)c1` [Compound 61, reference compound] had an EC50 of 1000 to 10000 nM.

On to `Cc1noc(C)c1C(=O)O/N=C(\N)c1ccc(-c2csnn2)cc1` [Compound 62, reference compound], for which the half-maximal effective concentration (EC50) was 500 to 1000 nM.

On to `Cc1noc(C)c1C(=O)O/N=C(\N)Cc1ccc(-c2csnn2)cc1` [Compound 63, reference compound], for which the half-maximal effective concentration (EC50) lay within 500 to 1000 nM.

In turn, `Cc1onc(-c2ccccc2Cl)c1C(=O)O/N=C1/CCCCN1` [Compound 64, reference compound] gave a half-maximal effective concentration (EC50) of under 500 nM.

Staying with this assay, now noted: Hepatitis C virus, Huh-7, 72 h, read-out: EC50 (Range).
Turning to `N/C(=N\OC(=O)c1conc1-c1ccccc1Cl)c1ccc2c(c1)OCO2` [Example 1, (Z)—N′-((3-(2-chlorophenyl)isoxazole-4-carbonyl)oxy)benzo[d][1,3]dioxole-5-carboximidamide], the half-maximal effective concentration (EC50) fell in the range of 1000 to 10000 nM.

For the molecule `COc1ccc(C/C(N)=N/OC(=O)c2c(C)cccc2C)c(OC)c1` [Example 2, (Z)-2-(2,4-dimethoxyphenyl)-N′-((2,6-dimethylbenzoyl)oxy)acetimidamide], the EC50 was under 500 nM.

`COc1ccccc1/C(N)=N/OC(=O)c1c(C)cccc1C` [Example 3, (Z)—N′-((2,6-dimethylbenzoyl)oxy)-2-methoxybenzimidamide]: the EC50 is under 500 nM.

For `N/C(=N\OC(=O)c1c(C(F)(F)F)cccc1C(F)(F)F)c1ccc2c(c1)OCO2` [Example 4, (Z)—N′-((2,6-bis(trifluoromethyl)benzoyl)oxy)benzo[d][1,3]dioxole-5-carboximidamide], the EC50 was in the range of 1000 to 10000 nM.

Regarding `COc1ccc(C/C(N)=N/OC(=O)c2ccccc2-c2ccccc2)cc1` [Example 5, (Z)—N′-(([1,1′-biphenyl]-2-carbonyl)oxy)-2-(4-methoxyphenyl)acetimidamide], the concentration giving a half-maximal response (EC50) is under 500 nM.

Regarding `CC(C)(C(=O)O/N=C(\N)c1ccc2c(c1)OCO2)c1ccccc1` [Example 6, (Z)—N′-((2-methyl-2-phenylpropanoyl)oxy)benzo[d][1,3]dioxole-5-carboximidamide], the EC50 lay within 500 to 1000 nM.

Turning to `COc1ccccc1C/C(N)=N/OC(=O)c1c(C)cccc1C` [Example 7, (Z)—N′-((2,6-dimethylbenzoyl)oxy)-2-(2-methoxyphenyl)acetimidamide], the EC50 was in the range of 500 to 1000 nM.

`Cc1cccc(C)c1C(=O)O/N=C(\N)CCc1ccc(Br)cc1` [Example 8, (Z)-3-(4-bromophenyl)-N′-((2,6-dimethylbenzoyl)oxy)propanimidamide]: the EC50 is under 500 nM.

In the case of `CC(C(=O)O/N=C(\N)c1ccc2c(c1)OCO2)(c1ccccc1)c1ccccc1` [Example 9, (Z)—N′-((2,2-diphenylpropanoyl)oxy)benzo[d][1,3]dioxole-5-carboximidamide], the half-maximal effective concentration (EC50) was under 500 nM.

As for `Cc1onc(-c2ccccc2Cl)c1C(=O)O/N=C(\N)CCc1ccc(Br)cc1` [Example 10, (Z)-3-(4-bromophenyl)-N′-((3-(2-chlorophenyl)-5-methylisoxazole-4-carbonyl)oxy)propanimidamide], the EC50 is under 500 nM.

On to `N/C(=N\OC(=O)c1c(-c2ccccc2Cl)noc1C1CC1)c1ccc2c(c1)OCO2` [Example 11, (Z)—N′-((3-(2-chlorophenyl)-5-cyclopropylisoxazole-4-carbonyl)oxy)benzo[d][1,3]dioxole-5-carboximidamide], for which the concentration giving a half-maximal response (EC50) was under 500 nM.

Take `CC(C)c1onc(-c2ccccc2Cl)c1C(=O)O/N=C(\N)c1ccc(OCc2ccc(Cl)cc2)cc1` [Example 12, (Z)-4-((4-chlorobenzyl)oxy)-N′-((3-(2-chlorophenyl)-5-isopropylisoxazole-4-carbonyl)oxy)benzimidamide]: the EC50 fell in the range of 500 to 1000 nM.

`N/C(=N\OC(=O)c1c(-c2ccccc2Cl)noc1Cc1ccccc1)c1ccc2c(c1)OCO2` [Example 13, (Z)—N′-((5-benzyl-3-(2-chlorophenyl)isoxazole-4-carbonyl)oxy)benzo[d][1,3]dioxole-5-carboximidamide]: the 50% effective concentration (EC50) was under 500 nM.

As to `CN/C(=N\OC(=O)c1c(-c2ccccc2Cl)noc1C)c1ccc2c(c1)OCO2` [Example 14, (Z)—N′-((3-(2-chlorophenyl)-5-methylisoxazole-4-carbonyl)oxy)-N-methylbenzo[d][1,3]dioxole-5-carboximidamide], the concentration for a half-maximal effect (EC50) is under 500 nM.

As to `COc1ccccc1C/C(N)=N/OC(=O)c1c(-c2ccccc2Cl)noc1C(C)C` [Example 15, (Z)—N′-((3-(2-chlorophenyl)-5-isopropylisoxazole-4-carbonyl)oxy)-2-(2-methoxyphenyl)acetimidamide], the EC50 is under 500 nM.

Take `COCc1onc(-c2ccccc2Cl)c1C(=O)O/N=C(\N)c1ccc2c(c1)OCO2` [Example 16, (Z)—N′-((3-(2-chlorophenyl)-5-(methoxymethyl)isoxazole-4-carbonyl)oxy)benzo[d][1,3]dioxole-5-carboximidamide]: the 50% effective concentration (EC50) was 500 to 1000 nM.

With `N/C(=N\OC(=O)c1c(-c2ccccc2Cl)noc1-c1ccncc1)c1ccc2c(c1)OCO2` [Example 17, (Z)—N′-((3-(2-chlorophenyl)-5-(pyridin-4-yl)isoxazole-4-carbonyl)oxy)benzo[d][1,3]dioxole-5-carboximidamide], the EC50 was 1000 to 10000 nM.

Take `N/C(=N\OC(=O)c1c(-c2ccccc2Cl)noc1-c1ccccc1)c1ccc2c(c1)OCO2` [Example 18, (Z)—N′-((3-(2-chlorophenyl)-5-phenylisoxazole-4-carbonyl)oxy)benzo[d][1,3]dioxole-5-carboximidamide]: the half-maximal effective concentration (EC50) lay within 500 to 1000 nM.

For `Cc1onc(-c2ccccc2Cl)c1C(=O)O/N=C(/c1ccc2c(c1)OCO2)N(C)C` [Example 19, (Z)—N′-((3-(2-chlorophenyl)-5-methylisoxazole-4-carbonyl)oxy)-N,N-dimethylbenzo[d][1,3]dioxole-5-carboximidamide], the EC50 lay within 1000 to 10000 nM.

As for `CCCCN/C(=N\OC(=O)c1c(-c2ccccc2Cl)noc1C)c1ccc2c(c1)OCO2` [Example 20, (Z)—N-butyl-N′-((3-(2-chlorophenyl)-5-methylisoxazole-4-carbonyl)oxy)benzo[d][1,3]dioxole-5-carboximidamide], the half-maximal effective concentration (EC50) is under 500 nM.

`Cc1onc(-c2ccccc2Cl)c1C(=O)O/N=C(\NCc1cccnc1)c1ccc2c(c1)OCO2` [Example 21, (Z)—N′-((3-(2-chlorophenyl)-5-methylisoxazole-4-carbonyl)oxy)-N-(pyridin-3-ylmethyl)benzo[d][1,3]dioxole-5-carboximidamide]: the 50% effective concentration (EC50) is 500 to 1000 nM.

For `COc1ccccc1C/C(N)=N/OC(=O)c1c(-c2ccccc2Cl)noc1C` [Example 22], the EC50 was under 500 nM.

As for `COc1ccc(C/C(N)=N/OC(=O)c2c(-c3ccccc3Cl)noc2C)cc1` [Example 23, (Z)—N′-((3-(2-chlorophenyl)-5-methylisoxazole-4-carbonyl)oxy)-2-(4-methoxyphenyl)acetimidamide], the concentration giving a half-maximal response (EC50) fell in the range of 500 to 1000 nM.

Regarding `Cc1onc(-c2ccccc2Cl)c1C(=O)O/N=C(\N)Cc1nc2ccccc2s1` [Example 24, (Z)-2-(benzo[d]thiazol-2-yl)-N′-((3-(2-chlorophenyl)-5-methylisoxazole-4-carbonyl)oxy)acetimidamide], the EC50 is 1000 to 10000 nM.

`Cc1ccc(/C(N)=N/OC(=O)c2cc(C)oc2C)cc1` [Example 25, (Z)—N′-((2,5-dimethylfuran-3-carbonyl)oxy)-4-methylbenzimidamide]: the EC50 fell in the range of 1000 to 10000 nM.

Turning to `Cc1cc(C)c(C(=O)O/N=C(\N)c2ccc3c(c2)OCO3)c(C)c1` [Example 26, (Z)—N′-((2,4,6-rimethylbenzoyl)oxy)benzo[d][1,3]dioxole-5-carboximidamide], the EC50 is under 500 nM.

With `COc1ccccc1C/C(N)=N/OC(=O)c1ccccc1-c1ccccc1C(=O)OC(C)C` [Example 28, (Z)-isopropyl 2′-((((1-amino-2-(2-methoxyphenyl)ethylidene)amino)oxy)carbonyl)-[1,1′-biphenyl]-2-carboxylate], the concentration for a half-maximal effect (EC50) was under 500 nM.

`Cc1cccc(-c2ccccc2)c1C(=O)O/N=C(\N)c1ccc(OCc2ccc(Cl)cc2)cc1` [Example 29, (Z)-4-((4-chlorobenzyl)oxy)-N′-((3-methyl-[1,1′-biphenyl]-2-carbonyl)oxy)benzimidamide]: the EC50 was under 500 nM.

The values are drawn from patent US20150133495A1 (ViroCura Therapeutics, Inc., priority 2013, published 2015).
